The text below walks through data of patent US20260355212A1 (priority 2022, published 2026).

Where two headings read alike, the source gives them in different places.

In one test the target is SARS-CoV-1 Mpro (Severe acute respiratory syndrome coronavirus, UniProt P0C6X7). The test is described as follows: biochemical.
A further test has as its target MERS Mpro (Middle East respiratory syndrome-related coronavirus, UniProt K9N7C7). The test is described as follows: biochemical. Also noted: species or system MERS-CoV.
A further test concerns the target HCoV-NL63 Mpro (Human coronavirus NL63, UniProt P0C6X5). The test can be described thus: HCoV-NL63 Mpro enzymatic inhibition assay (fluorescence). The class given is biochemical. The procedure, abridged: (§1)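 Recombinant Mpro from E. coli was pre-incubated with compound (3-fold, 10-point dilutions, duplicates) for 30 min at room temperature, then fluorogenic peptide substrate was added and fluorescence read at Ex/Em 340/490 nm after 60 min at 30 °C. IC50 came from four-parameter fits of background-corrected inhibition.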

The target of another test is HCoV-OC43 Mpro (Human coronavirus OC43, UniProt P0C6X6). The test can be described thus: HCoV-OC43 Mpro enzymatic inhibition assay (fluorescence). It counts as biochemical. The procedure, abridged:
as §1

The next test concerns the target HCoV-229E Mpro (Human coronavirus 229E, UniProt P0C6X1). The test can be described thus: HCoV-229E Mpro enzymatic inhibition assay (fluorescence). It counts as biochemical.
In the next test the target is SARS-CoV-2 Mpro (Severe acute respiratory syndrome coronavirus 2, UniProt P0DTD1). The test can be described thus: SARS-CoV-2 Mpro enzymatic inhibition assay (fluorescence). The class given is biochemical. The procedure, abridged: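 Recombinant Mpro expressed in E. coli was preincubated 30 min at room temperature with 10-point, 3-fold serially diluted compound in duplicate. Fluorogenic substrate was then added and incubated 60 min at 30° C, and fluorescence read at Ex/Em 340/490 nm. IC50 came from a four-parameter fit of % inhibition.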

For a further test, the target named is HCoV-HKU1 Mpro (Human coronavirus HKU1, UniProt P0C6X2). The test can be described thus: HCoV-HKU1 Mpro enzymatic inhibition assay (fluorescence). It counts as biochemical. Summed up:
as §1

One may read the IC50 as the concentration needed to halve the response being measured.

Chain of HCoV-HKU1 Mpro (P0C6X2 3335-3637 limits assumed): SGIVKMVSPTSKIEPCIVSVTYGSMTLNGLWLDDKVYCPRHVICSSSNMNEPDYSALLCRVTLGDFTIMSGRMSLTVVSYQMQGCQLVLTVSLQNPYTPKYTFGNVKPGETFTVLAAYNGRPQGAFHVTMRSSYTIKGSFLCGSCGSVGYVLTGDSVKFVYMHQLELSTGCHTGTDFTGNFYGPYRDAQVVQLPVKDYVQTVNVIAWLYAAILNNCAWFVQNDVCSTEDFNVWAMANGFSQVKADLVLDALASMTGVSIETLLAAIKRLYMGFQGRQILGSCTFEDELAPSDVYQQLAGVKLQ
Chain of HCoV-NL63 Mpro (P0C6X5 2940-3242 limits assumed): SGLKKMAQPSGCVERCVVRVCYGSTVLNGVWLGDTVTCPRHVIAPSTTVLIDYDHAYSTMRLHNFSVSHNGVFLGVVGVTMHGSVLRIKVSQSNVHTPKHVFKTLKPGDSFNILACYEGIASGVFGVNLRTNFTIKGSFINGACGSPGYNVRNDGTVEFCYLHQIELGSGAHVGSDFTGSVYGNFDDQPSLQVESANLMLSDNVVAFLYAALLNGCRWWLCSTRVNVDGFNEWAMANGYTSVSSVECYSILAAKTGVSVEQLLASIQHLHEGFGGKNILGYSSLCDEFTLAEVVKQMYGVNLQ
Chain of HCoV-229E Mpro (P0C6X1 2966-3267 limits assumed): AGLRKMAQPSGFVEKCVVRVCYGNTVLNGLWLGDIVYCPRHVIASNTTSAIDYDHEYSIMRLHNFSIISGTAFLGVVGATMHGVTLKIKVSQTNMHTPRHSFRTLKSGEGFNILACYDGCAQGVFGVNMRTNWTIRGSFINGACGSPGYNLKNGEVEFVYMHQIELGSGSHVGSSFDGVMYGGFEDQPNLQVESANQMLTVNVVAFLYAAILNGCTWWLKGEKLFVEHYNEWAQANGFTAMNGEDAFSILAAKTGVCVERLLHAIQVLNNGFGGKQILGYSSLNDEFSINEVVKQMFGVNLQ
Chain of HCoV-OC43 Mpro (P0C6X6 3247-3549 limits assumed): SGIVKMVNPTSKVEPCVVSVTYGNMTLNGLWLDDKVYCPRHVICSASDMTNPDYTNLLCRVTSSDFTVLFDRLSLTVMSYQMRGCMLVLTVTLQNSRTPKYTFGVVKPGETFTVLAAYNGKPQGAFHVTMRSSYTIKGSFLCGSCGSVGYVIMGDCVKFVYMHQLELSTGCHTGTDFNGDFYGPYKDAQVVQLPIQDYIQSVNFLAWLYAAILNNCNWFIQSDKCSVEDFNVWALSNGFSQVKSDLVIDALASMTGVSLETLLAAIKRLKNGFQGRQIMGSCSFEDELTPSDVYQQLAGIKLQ
Chain of MERS Mpro (K9N7C7 3248-3553 limits assumed): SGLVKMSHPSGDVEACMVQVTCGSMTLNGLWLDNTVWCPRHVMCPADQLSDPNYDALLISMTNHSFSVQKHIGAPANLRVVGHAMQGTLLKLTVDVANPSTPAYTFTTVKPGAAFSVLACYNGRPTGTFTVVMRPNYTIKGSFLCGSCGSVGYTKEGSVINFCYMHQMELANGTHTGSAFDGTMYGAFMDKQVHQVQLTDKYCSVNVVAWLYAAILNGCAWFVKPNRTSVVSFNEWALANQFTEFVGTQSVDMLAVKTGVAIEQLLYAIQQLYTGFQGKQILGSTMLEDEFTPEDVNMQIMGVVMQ

As for `CC1(C)[C@@H]2[C@@H](C(=O)N[C@H](C=O)C[C@@H]3CCNC3=O)N(C(=O)c3cc4cc5c(cc4[nH]3)OCO5)C[C@@H]21` [Compound 27, (1R,2S,5S)-3-(5H-[1,3]dioxolo[4,5-f]indole-6-carbonyl)-6,6-dimethyl-N—((S)-1-oxo-3-((S)-2-oxopyrrolidin-3-yl)propan-2-yl)-3-azabicyclo[3.1.0]hexane-2-carboxamide], the IC50 against SARS-CoV-1 Mpro is 0.0528 µM; against MERS Mpro, 0.466 µM; against HCoV-NL63 Mpro, 0.0828 µM; against HCoV-OC43 Mpro it was 0.0892 µM; on HCoV-229E Mpro, 0.0547 µM; against SARS-CoV-2 Mpro, 0.0172 µM. For the same molecule, 0.049 µM corresponded to half-maximal inhibition against HCoV-HKU1 Mpro (IC50).

Turning to `COc1ccc(Cl)c2[nH]c(C(=O)N3C[C@H]4[C@@H]([C@H]3C(=O)N[C@H](C=O)C[C@@H]3CCNC3=O)C4(C)C)cc12` [Compound 28, (1R,2S,5S)-3-(7-chloro-4-methoxy-1H-indole-2-carbonyl)-6,6-dimethyl-N—((S)-1-oxo-3-((S)-2-oxopyrrolidin-3-yl)propan-2-yl)-3-azabicyclo[3.1.0]hexane-2-carboxamide], the IC50 was 0.0269 µM at SARS-CoV-1 Mpro; 0.224 µM against MERS Mpro; 0.0509 µM on HCoV-NL63 Mpro; 0.0432 µM against HCoV-OC43 Mpro; 0.0356 µM at HCoV-229E Mpro; 0.018 µM on SARS-CoV-2 Mpro. This molecule returned an IC50 against HCoV-HKU1 Mpro of 0.0199 µM.

For `CC1(C)[C@@H]2[C@@H](C(=O)N[C@H](C=O)C[C@@H]3CCNC3=O)N(C(=O)c3cc4cccc(C(F)(F)F)c4[nH]3)C[C@@H]21` [Compound 29, (1R,2S,5S)-6,6-dimethyl-N—((S)-1-oxo-3-((S)-2-oxopyrrolidin-3-yl)propan-2-yl)-3-(7-(trifluoromethyl)-1H-indole-2-carbonyl)-3-azabicyclo[3.1.0]hexane-2-carboxamide], the IC50 amounted to 0.0352 µM at SARS-CoV-1 Mpro; 0.296 µM against MERS Mpro; 0.0939 µM against HCoV-NL63 Mpro; 0.087 µM on HCoV-OC43 Mpro; 0.0474 µM on HCoV-229E Mpro; 0.0183 µM on SARS-CoV-2 Mpro. In addition, half-maximal inhibition against HCoV-HKU1 Mpro (IC50) required 0.0535 µM.

As for `CC1(C)[C@@H]2[C@@H](C(=O)N[C@H](C=O)C[C@@H]3CCNC3=O)N(C(=O)c3cc4sccc4[nH]3)C[C@@H]21` [Compound 30, (1R,2S,5S)-6,6-dimethyl-N—((S)-1-oxo-3-((S)-2-oxopyrrolidin-3-yl)propan-2-yl)-3-(4H-thieno[3,2-b]pyrrole-5-carbonyl)-3-azabicyclo[3.1.0]hexane-2-carboxamide], the IC50 at SARS-CoV-1 Mpro is 0.0511 µM; against MERS Mpro, 0.239 µM; on HCoV-NL63 Mpro, 0.0497 µM; on HCoV-OC43 Mpro it was 0.0438 µM; against HCoV-229E Mpro it was 0.0245 µM; against SARS-CoV-2 Mpro, 0.0186 µM. In addition, the IC50 against HCoV-HKU1 Mpro was 0.026 µM.

For the molecule `COc1cccc2[nH]c(C(=O)N3CC4(CC4)C[C@H]3C(=O)N[C@H](C=O)C[C@@H]3CCNC3=O)cc12` [Compound 31, (S)-5-(4-Methoxy-1H-indole-2-carbonyl)-N—((S)-1-oxo-3-((S)-2-oxopyrrolidin-3-yl)propan-2-yl)-5-azaspiro[2.4]heptane-6-carboxamide], the IC50 against SARS-CoV-1 Mpro stood at 0.034 µM; at MERS Mpro it was 0.188 µM; against HCoV-NL63 Mpro, 0.0493 µM; on HCoV-OC43 Mpro, 0.0222 µM; at HCoV-229E Mpro it was 0.0317 µM; at SARS-CoV-2 Mpro it was 0.0189 µM. At HCoV-HKU1 Mpro, this molecule had an IC50 of 0.0142 µM.

Regarding `CC1(C)[C@@H]2[C@@H](C(=O)N[C@H](C=O)C[C@@H]3CCNC3=O)N(C(=O)c3cc4cccc(C#N)c4[nH]3)C[C@@H]21` [Compound 32, (1R,2S,5S)-3-(7-cyano-1H-indole-2-carbonyl)-6,6-dimethyl-N—((S)-1-oxo-3-((S)-2-oxopyrrolidin-3-yl)propan-2-yl)-3-azabicyclo[3.1.0]hexane-2-carboxamide], the IC50 at SARS-CoV-1 Mpro was found to be 0.0363 µM; against MERS Mpro, 0.177 µM; at HCoV-NL63 Mpro, 0.0596 µM; against HCoV-OC43 Mpro it was 0.0524 µM; at HCoV-229E Mpro it was 0.0354 µM; on SARS-CoV-2 Mpro, 0.0197 µM. The IC50 against HCoV-HKU1 Mpro came out at 0.0218 µM.

As to `Cc1cccc2cc(C(=O)N3C[C@H]4[C@@H]([C@H]3C(=O)N[C@H](C=O)C[C@@H]3CCNC3=O)C4(C)C)[nH]c12` [Compound 33, (1R,2S,5S)-6,6-Dimethyl-3-(7-methyl-1H-indole-2-carbonyl)-N—((S)-1-oxo-3-((S)-2-oxopyrrolidin-3-yl)propan-2-yl)-3-azabicyclo[3.1.0]hexane-2-carboxamide], the IC50 against SARS-CoV-1 Mpro amounted to 0.034 µM; at MERS Mpro, 0.227 µM; against HCoV-NL63 Mpro, 0.078 µM; against HCoV-OC43 Mpro, 0.0832 µM; against HCoV-229E Mpro, 0.0435 µM; on SARS-CoV-2 Mpro, 0.0197 µM. This molecule showed an IC50 against HCoV-HKU1 Mpro of 0.0379 µM.

Consider `CC(C)c1cccc2[nH]c(C(=O)N3C[C@H]4[C@@H]([C@H]3C(=O)N[C@H](C=O)C[C@@H]3CCNC3=O)C4(C)C)cc12` [Compound 34, (1R,2S,5S)-3-(4-isopropyl-1H-indole-2-carbonyl)-6,6-dimethyl-N—((S)-1-oxo-3-((S)-2-oxopyrrolidin-3-yl)propan-2-yl)-3-azabicyclo[3.1.0]hexane-2-carboxamide], for which the 50% inhibitory concentration (IC50) on SARS-CoV-1 Mpro was found to be 0.0353 µM; against MERS Mpro, 0.278 µM; against HCoV-NL63 Mpro, 0.0653 µM; on HCoV-OC43 Mpro, 0.0579 µM; at HCoV-229E Mpro it was 0.0377 µM; at SARS-CoV-2 Mpro (mean, 25 nM protein, 25 μM substrate, 30 min pre-incubation, 60 min at 30° C., read-out: Mpro_SARS-CoV-2 mean IC50) it was 0.0198 µM. This molecule returned an IC50 at HCoV-HKU1 Mpro of 0.0208 µM.

For the molecule `NC(=O)C(=O)[C@H](C[C@@H]1CCNC1=O)NC(=O)[C@@H]1CC2(CC2)CN1C(=O)c1cc2ccccc2[nH]1` [Compound 35, (S)—N—((S)-4-Amino-3,4-dioxo-1-((S)-2-oxopyrrolidin-3-yl)butan-2-yl)-5-(1H-indole-2-carbonyl)-5-azaspiro[2.4]heptane-6-carboxamide], the IC50 on SARS-CoV-1 Mpro was 0.0658 µM; on MERS Mpro, 0.179 µM; against HCoV-NL63 Mpro, 0.0485 µM; at HCoV-OC43 Mpro, 0.0644 µM; against HCoV-229E Mpro it was 0.0374 µM; on SARS-CoV-2 Mpro it was 0.0203 µM. The same molecule yielded an IC50 at HCoV-HKU1 Mpro of 0.0114 µM.

`COc1ccc(F)c2[nH]c(C(=O)N3C[C@H]4[C@@H]([C@H]3C(=O)N[C@H](C=O)C[C@@H]3CCNC3=O)C4(C)C)cc12` [Compound 36, (1R,2S,5S)-3-(7-Fluoro-4-methoxy-1H-indole-2-carbonyl)-6,6-dimethyl-N—((S)-1-oxo-3-((S)-2-oxopyrrolidin-3-yl)propan-2-yl)-3-azabicyclo[3.1.0]hexane-2-carboxamide]: the IC50 against SARS-CoV-1 Mpro was determined as 0.0317 µM; at MERS Mpro, 0.245 µM; on HCoV-NL63 Mpro it was 0.0517 µM; on HCoV-OC43 Mpro, 0.0427 µM; at HCoV-229E Mpro it was 0.0332 µM; on SARS-CoV-2 Mpro it was 0.0206 µM. This molecule also gave an IC50 against HCoV-HKU1 Mpro of 0.0357 µM.

`C[C@@H](C(=O)N1C[C@H]2[C@@H]([C@H]1C(=O)N[C@H](C=O)C[C@@H]1CCNC1=O)C2(C)C)c1ccccc1` [Compound 37, (1R,2S,5S)-6,6-dimethyl-N—((S)-1-oxo-3-((S)-2-oxopyrrolidin-3-yl)propan-2-yl)-3-((R)-2-phenylpropanoyl)-3-azabicyclo[3.1.0]hexane-2-carboxamide]: the IC50 on SARS-CoV-1 Mpro was 0.0404 µM; on MERS Mpro, 0.242 µM; at HCoV-NL63 Mpro, 0.188 µM; on HCoV-OC43 Mpro it was 0.0367 µM; against HCoV-229E Mpro, 0.0456 µM; at SARS-CoV-2 Mpro, 0.0206 µM. The same molecule registered a half-inhibitory concentration (IC50) against HCoV-HKU1 Mpro of 0.0364 µM.

`O=C[C@H](C[C@@H]1CCNC1=O)NC(=O)[C@@H]1C[C@@H](C2CCCCC2)CN1C(=O)c1cc2c(F)cccc2[nH]1` [Compound 38, (2S,4S)-4-Cyclohexyl-1-(4-fluoro-1H-indole-2-carbonyl)-N—((S)-1-oxo-3-((S)-2-oxopyrrolidin-3-yl)propan-2-yl)pyrrolidine-2-carboxamide]: the IC50 on SARS-CoV-1 Mpro is 0.097 µM; at MERS Mpro it was 0.516 µM; against HCoV-NL63 Mpro, 0.1 µM; at HCoV-OC43 Mpro, 0.046 µM; on HCoV-229E Mpro, 0.0416 µM; at SARS-CoV-2 Mpro, 0.021 µM. Moreover, on HCoV-HKU1 Mpro, half-maximal inhibition (IC50) required 0.016 µM.

As for `CC(C)c1ccc(F)c2[nH]c(C(=O)N3C[C@H]4[C@@H]([C@H]3C(=O)N[C@H](C=O)C[C@@H]3CCNC3=O)C4(C)C)cc12` [Compound 39, (1R,2S,5S)-3-(7-fluoro-4-isopropyl-1H-indole-2-carbonyl)-6,6-dimethyl-N—((S)-1-oxo-3-((S)-2-oxopyrrolidin-3-yl)propan-2-yl)-3-azabicyclo[3.1.0]hexane-2-carboxamide], the IC50 worked out at 0.03 µM against SARS-CoV-1 Mpro; 0.208 µM against MERS Mpro; 0.04 µM at HCoV-NL63 Mpro; 0.0351 µM on HCoV-OC43 Mpro; 0.0264 µM on HCoV-229E Mpro; 0.0216 µM on SARS-CoV-2 Mpro. The same molecule gave an IC50 against HCoV-HKU1 Mpro of 0.016 µM.

On to `CC1(C)[C@@H]2[C@@H](C(=O)N[C@H](C=O)C[C@@H]3CCNC3=O)N(C(=O)Cc3ccc4c(c3)CCCC4)C[C@@H]21` [Compound 40, (1R,2S,5S)-6,6-Dimethyl-N—((S)-1-oxo-3-((S)-2-oxopyrrolidin-3-yl)propan-2-yl)-3-(2-(5,6,7,8-tetrahydronaphthalen-2-yl)acetyl)-3-azabicyclo[3.1.0]hexane-2-carboxamide], for which the IC50 on SARS-CoV-1 Mpro was 0.0353 µM; against MERS Mpro, 0.237 µM; on HCoV-NL63 Mpro, 0.0886 µM; on HCoV-OC43 Mpro, 0.0457 µM; at HCoV-229E Mpro, 0.0401 µM; on SARS-CoV-2 Mpro, 0.0217 µM. The molecule also registered an IC50 at HCoV-HKU1 Mpro of 0.0204 µM.
